ChEMBL document CHEMBL1136145, “Antitumor activity of unsaturated fatty acid esters of 4'-demethyldeoxypodophyllotoxin” (Bioorg Med Chem Lett, 2003)
Converted amounts (≈) assume the structure as drawn.

How the values were obtained:
A549 = assay: Cytotoxicity in A549 (human carcinoma) cell line.; assay type: functional; conditions: read-out: ED50 (the source's name)
SK-MEL-2 = assay: Cytotoxicity in SK-MEL-2 (human melanoma) cell line.; assay type: functional; conditions: read-out: ED50 (the source's name)
[1] = Inhibition of DNA topoisomerase II in S180 (murine sarcoma) cells.; assay type: functional, cell-based, Mus musculus; conditions: ccrf s-180
CCRF S-180 = assay: Cytotoxicity in S-180 (murine sarcoma) cell was determined.; assay type: functional, cell-based; conditions: Mus musculus
Tubulin = assay: Inhibition of tubulin polymerization in S180 (murine sarcoma) cells.; assay type: functional, cell-based; conditions: ccrf s-180

SMILES	EC50 (A549) [µg/mL]	EC50 (SK-MEL-2) [µg/mL]	IC50 [1] [µM]	IC50 (CCRF S-180) [µM]	IC50 (Tubulin) [µM]
CCCCC/C=C\C/C=C\CCCCCCCC(=O)Oc1c(OC)cc([C@@H]2c3cc4c(cc3C[C@H]3COC(=O)[C@@H]32)OCO4)cc1OC	0.09 (≈ 0.139 µM)	0.03 (≈ 0.0464 µM)			
CC/C=C\C/C=C\C/C=C\C/C=C\C/C=C\C/C=C\CCC(=O)Oc1c(OC)cc([C@@H]2c3cc4c(cc3C[C@H]3COC(=O)[C@@H]32)OCO4)cc1OC	0.119 (≈ 0.171 µM)	0.035 (≈ 0.0504 µM)			
CCCCCCCC/C=C\CCCCCCCCCC(=O)Oc1c(OC)cc([C@@H]2c3cc4c(cc3C[C@H]3COC(=O)[C@@H]32)OCO4)cc1OC	> 5	> 5			
CCCCCCCCCCCCCCCC(=O)Oc1c(OC)cc([C@@H]2c3cc4c(cc3C[C@H]3COC(=O)[C@@H]32)OCO4)cc1OC	0.268 (≈ 0.43 µM)	0.29 (≈ 0.466 µM)			
CCCC/C=C\C/C=C\C/C=C\C/C=C\CCCC(=O)Oc1c(OC)cc([C@@H]2c3cc4c(cc3C[C@H]3COC(=O)[C@@H]32)OCO4)cc1OC	0.91 (≈ 1.39 µM)	0.184 (≈ 0.28 µM)			
COc1cc([C@@H]2c3cc4c(cc3C[C@H]3COC(=O)[C@@H]32)OCO4)cc(OC)c1OC [DESOXYPODOPHYLLOTOXIN]	0.012 (≈ 0.0301 µM)	0.009 (≈ 0.0226 µM)			
CCCCCCCCCCCCCCCCCCCCCC(=O)Oc1c(OC)cc([C@@H]2c3cc4c(cc3C[C@H]3COC(=O)[C@@H]32)OCO4)cc1OC	> 5	> 5			
CCCCCCC/C=C/CCCCCCCCCC(=O)Oc1c(OC)cc([C@@H]2c3cc4c(cc3C[C@H]3COC(=O)[C@@H]32)OCO4)cc1OC	1.66 (≈ 2.5 µM)	1.13 (≈ 1.7 µM)			
CCCCCC/C=C/CCCCCCCCCC(=O)Oc1c(OC)cc([C@@H]2c3cc4c(cc3C[C@H]3COC(=O)[C@@H]32)OCO4)cc1OC	1.01 (≈ 1.56 µM)	0.253 (≈ 0.39 µM)			
CCCCCCCC/C=C\CCCCCCCC(=O)Oc1c(OC)cc([C@@H]2c3cc4c(cc3C[C@H]3COC(=O)[C@@H]32)OCO4)cc1OC	0.179 (≈ 0.276 µM)	0.159 (≈ 0.245 µM)			
CCCCCC/C=C\CCCCCCCCCC(=O)Oc1c(OC)cc([C@@H]2c3cc4c(cc3C[C@H]3COC(=O)[C@@H]32)OCO4)cc1OC	0.335 (≈ 0.516 µM)	0.057 (≈ 0.0878 µM)			
CCCCCCCCCCCCCCCCCC(=O)Oc1c(OC)cc([C@@H]2c3cc4c(cc3C[C@H]3COC(=O)[C@@H]32)OCO4)cc1OC	2.67 (≈ 4.1 µM)	> 5			
CC/C=C\C/C=C\C/C=C\CCCCCCCC(=O)Oc1c(OC)cc([C@@H]2c3cc4c(cc3C[C@H]3COC(=O)[C@@H]32)OCO4)cc1OC	0.084 (≈ 0.13 µM)	0.048 (≈ 0.0744 µM)			
COc1cc([C@@H]2c3cc4c(cc3C[C@H]3COC(=O)[C@@H]32)OCO4)cc(OC)c1O [4'-DEMETHYLDEOXYPODOPHYLLOTOXIN]	0.023 (≈ 0.0598 µM)	0.015 (≈ 0.039 µM)	24.5	0.03	2
CCCCCCCC/C=C\CCCCCCCCCCCC(=O)Oc1c(OC)cc([C@@H]2c3cc4c(cc3C[C@H]3COC(=O)[C@@H]32)OCO4)cc1OC	2.71 (≈ 3.84 µM)	0.561 (≈ 0.796 µM)			
CCCCC/C=C\C/C=C\C/C=C\CCCCC(=O)Oc1c(OC)cc([C@@H]2c3cc4c(cc3C[C@H]3COC(=O)[C@@H]32)OCO4)cc1OC	0.085 (≈ 0.132 µM)	0.041 (≈ 0.0636 µM)			
CCCC/C=C\C/C=C\CCCCCCCCCC(=O)Oc1c(OC)cc([C@@H]2c3cc4c(cc3C[C@H]3COC(=O)[C@@H]32)OCO4)cc1OC	0.87 (≈ 1.32 µM)	0.347 (≈ 0.525 µM)			
CCCCCCCC/C=C/CCCCCCCC(=O)Oc1c(OC)cc([C@@H]2c3cc4c(cc3C[C@H]3COC(=O)[C@@H]32)OCO4)cc1OC	0.367 (≈ 0.566 µM)	0.55 (≈ 0.848 µM)			
CCCCCC/C=C\CCCCCCCC(=O)Oc1c(OC)cc([C@@H]2c3cc4c(cc3C[C@H]3COC(=O)[C@@H]32)OCO4)cc1OC	0.733 (≈ 1.18 µM)	0.065 (≈ 0.105 µM)			
CCCCCCCCCCCCCCCCCCCC(=O)Oc1c(OC)cc([C@@H]2c3cc4c(cc3C[C@H]3COC(=O)[C@@H]32)OCO4)cc1OC	> 5	> 5			
CCCCC/C=C/C/C=C/CCCCCCCC(=O)Oc1c(OC)cc([C@@H]2c3cc4c(cc3C[C@H]3COC(=O)[C@@H]32)OCO4)cc1OC	0.259 (≈ 0.4 µM)	0.11 (≈ 0.17 µM)			
